The source of these data is ChEMBL document CHEMBL1125116 (J Med Chem, 1990).

Molecules are shown by their SMILES.

The experiment concerns the target D(2) dopamine receptor (Rattus norvegicus, UniProt P61169). Kind of experiment: Evaluated in vitro for the affinity towards Dopamine receptor D2 of rat striatal tissue.

Sequence of D(2) dopamine receptor (P61169 whole entry): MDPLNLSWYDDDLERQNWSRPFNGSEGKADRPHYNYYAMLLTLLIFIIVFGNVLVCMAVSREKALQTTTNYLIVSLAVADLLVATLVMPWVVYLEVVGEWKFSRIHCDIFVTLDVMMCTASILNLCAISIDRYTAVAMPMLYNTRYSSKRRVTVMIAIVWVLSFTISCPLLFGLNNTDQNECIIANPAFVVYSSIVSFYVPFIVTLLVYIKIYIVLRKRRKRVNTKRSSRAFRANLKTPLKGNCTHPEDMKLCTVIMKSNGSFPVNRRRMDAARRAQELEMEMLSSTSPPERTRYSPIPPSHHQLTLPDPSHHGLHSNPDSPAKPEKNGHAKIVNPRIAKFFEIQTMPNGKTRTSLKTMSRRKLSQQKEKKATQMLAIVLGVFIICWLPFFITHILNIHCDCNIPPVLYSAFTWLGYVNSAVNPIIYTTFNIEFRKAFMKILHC

The term Kd denotes the constant that tells how readily two partners part at equilibrium. A lower Kd goes with higher affinity. As for `CCN1CCC[C@H]1CNC(=O)c1cc(I)ccc1OC` [IODOPRIDE], binding was put at a Kd of 3 nM.
